From PubChem BioAssay (NCI)
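48-hour exposure; five concentrations; linearly interpolated endpoints. TGI denotes the concentration required for complete inhibition of growth.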

Experiments:
Assay in all cases: inhibition of tumour cell growth, NCI panel, 48 h
HOP-92 NSCLC = test system: HOP-92 NSCLC
SK-MEL-28 melanoma = test system: SK-MEL-28 melanoma
HCC-2998 colon = test system: HCC-2998 colon
SK-MEL-5 melanoma = test system: SK-MEL-5 melanoma
OVCAR-3 ovarian = test system: OVCAR-3 ovarian
SNB-19 CNS = test system: SNB-19 CNS
OVCAR-5 ovarian = test system: OVCAR-5 ovarian
MDA-MB-435 = test system: MDA-MB-435
T-47D breast = test system: T-47D breast
SF-539 CNS = test system: SF-539 CNS
SK-MEL-2 melanoma = test system: SK-MEL-2 melanoma
NCI-H226 lung = test system: NCI-H226 lung
UACC-62 melanoma = test system: UACC-62 melanoma
CCRF-CEM leukemia = test system: CCRF-CEM leukemia
NCI-H23 lung = test system: NCI-H23 lung
DU-145 prostate = test system: DU-145 prostate
IGROV1 ovarian = test system: IGROV1 ovarian
SF-268 CNS = test system: SF-268 CNS
RXF 393 renal = test system: RXF 393 renal
MDA-N = test system: MDA-N

Measured: TGI

Cc1cn(C2CC(NC(=NCC3OC(n4cnc5c(N)ncnc54)CC3O)NC#N)C(CO)O2)c(=O)[nH]c1=O (stereo not given)
> 100 µM: all assays above

O=S(=O)(O)C(Cc1nc2ccccc2[nH]1)S(=O)(=O)OCCC1S(=O)(=O)OCCOS1(=O)=O (stereo not given)
> 100 µM: all assays above

O=C(O)c1ccc(NNC(=O)c2cccc3c(=O)c4ccccc4[nH]c23)cc1
> 100 µM: all assays above

CCOC(=O)c1ccc(N=c2oc3ccc(OC)cc3cc2-c2nc3ccccc3[nH]2)cc1
8.58 µM: NCI-H226 lung
6.03 µM: SF-539 CNS
80.4 µM: SK-MEL-5 melanoma
> 100 µM: all other assays above

O=c1cc(-c2cccc(OCc3ccccc3)c2)[nH]c2cc3c(cc12)OCO3
0.481 µM: CCRF-CEM leukemia
0.417 µM: MDA-N
7.79 µM: NCI-H226 lung
0.36 µM: MDA-MB-435
0.564 µM: SF-539 CNS
14.9 µM: SNB-19 CNS
5.88 µM: SK-MEL-2 melanoma
18.6 µM: HOP-92 NSCLC
0.751 µM: HCC-2998 colon
> 70.3 µM: SF-268 CNS
3.58 µM: OVCAR-3 ovarian
8.15 µM: RXF 393 renal
12.3 µM: UACC-62 melanoma
15 µM: NCI-H23 lung
> 100 µM: all other assays above
